The values below come from patent US20260132123A1, “ABAD INHIBITOR COMPOUNDS” (UNIVERSITY COURT OF THE UNIVERSITY OF ST ANDREWS, priority 2021, published 2026).

Data set [1] deals with T1, 17β-HSD10 (Homo sapiens, UniProt Q99714).
T1 construct: Histev (histidine tag with TEV site) (N, cleaved yes); made in house; host or cells: E. coli BL21-CodonPlus
T1 sequence (Q99714 1-261): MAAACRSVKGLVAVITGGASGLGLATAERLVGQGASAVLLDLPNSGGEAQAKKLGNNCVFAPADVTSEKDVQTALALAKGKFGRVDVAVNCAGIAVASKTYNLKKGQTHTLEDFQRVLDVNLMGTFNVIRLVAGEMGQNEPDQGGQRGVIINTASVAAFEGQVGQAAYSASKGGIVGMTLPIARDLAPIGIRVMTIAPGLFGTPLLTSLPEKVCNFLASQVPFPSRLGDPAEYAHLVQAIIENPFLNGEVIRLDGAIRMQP
The data set can be described thus: 17β-HSD10 (ABAD) enzyme inhibition assay, NADH oxidation read at 340 nm (primary screen and dose response). It is filed as biochemical. Particulars: for Hill Slope / Max. Fit / Min. Fit / EC50 / Max. Effect (%): recombinant 17βHSD10 enzyme assay; for Hill Slope / Max. Fit / Min. Fit: curve fit. Summed up: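 Screening used a 35 min room-temperature endpoint A340 read after compound (10 μM) and enzyme (2.5 nM, E. coli-expressed, His-tag removed) preincubated 15 min, then 100 μM NADH plus acetoacetyl-CoA added. Dose-response runs tracked absorbance kinetically 45 min; buffer pH 7.4 Tris with BSA, DTT.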

Data set [2] concerns mtsABAD HEK293 cells. Put plainly: Lactate dehydrogenase (LDH) cytotoxicity assay. It is filed as cell-based, human. Particulars: 50 μM compound. As for the experimental part: Cell cytotoxicity was assessed via the measurement of lactate dehydrogenase leakage into the culture medium using a commercially available kit from Pierce (Thermo Scientific cat no. 88953). This was carried out in accordance with the kit guidelines, with the activity of Lactate Dehydrogenase (LDH) being calculated from the change in absorbance at […] as NADH is reduced. HEK293 cells overexpressing mts17β-HSD10 were cultured in phenol-red free media (10% fetal bovine serum (FBS), 1 mM sodium pyruvate, 100 units penicillin, 0.1 mg/mL streptomycin and 2 mM L-glutamine) and seeded at a density of 10,000 cells per well (100 μL, 96 well plates). […] Treated cells were incubated at 37° C. and CO2 (5%) for 24 hours before the LDH assay was performed as per the manufacturer's instructions. Spontaneous control (water) and maximum control (lysis buffer) used in accordance with the kit guide. Absorbance was measured at 490 nm and 680 nm using a SpectraMaxM2e spectrophotometer. The measured LDH activity was used to calculate % cytotoxicity using the following equation: […]

Data set [3] deals with mtsABAD HEK293 cells. Put plainly: Alamar Blue cell viability assay. It counts as cell-based, human. As to conditions: 50 μM compound. How it is done:
Cell viability was assessed via fluorescence change using the commercially available Alamar Blue from ThermoFisher. HEK293 cells overexpressing mts17β-HSD10 were cultured in phenol-red free media (10% FBS, 1 mM sodium pyruvate, 100 units penicillin, 0.1 mg/mL streptomycin and 2 mM L-glutamine) and seeded at a density of 10,000 cells per well (100 μL, 96 well plates). […] Treated cells were then incubated at 37° C. and CO2 (5%) for 24 hours before the assay was performed as per the manufacturer's instructions. Fluorescence was measured at 530 nm excitation and 590 nm emission using a SpectraMaxM2e spectrophotometer.

Consider `COc1ccc(-c2ccccc2[C@H]2CCCN2C(=O)c2sccc2C)cc1` [ESC1002089], for which, in data set [1], the “Hill Slope” value turned out to be 1.1, the “Max. Fit” value was 98 and the “Min. Fit” value is given as 0. In data set [1] (relative to the parent compound of the sentence), the “fold improvement in activity / potency” value is listed as “under 3 fold”. In data set [2], the “LDH % Toxicity (50 μM Dose)” value was determined as 5.398%. Moreover, the “Alamar Blue % Viability (50 μM Dose)” value in data set [3] is 83.064%.
For orientation: EC50 means the concentration needed to bring the measured effect to its halfway point. Consider `COc1cccc(-c2ccccc2[C@@H]2CCCN2C(=O)c2sccc2C)c1OC` [ESC1002326], for which, in data set [1], the half-maximal effective concentration (EC50) was 708 nM, the “Max. Effect (%)” value came out at 97%, the “Hill Slope” value stood at 1.1 and the “Max. Fit” value came out at 99. For the same compound, the “Min. Fit” value in data set [1] is on record as 4. For the same compound, in data set [2], the “LDH % Toxicity (50 μM Dose)” value was 5.05%. In addition, the “Alamar Blue % Viability (50 μM Dose)” value in data set [3] is reported as 88.92%.
On to `CC(C)CN(C(=O)c1ccc(Cl)cc1)c1cccc(N(C)Cc2cnc[nH]2)c1` [ESC1002183, 4-chloro-N-[3-[1H-imidazol-5-ylmethyl(methyl)amino]phenyl]-N-isobutyl-benzamide], for which, in data set [1], the concentration giving a half-maximal response (EC50) is 776 nM, the “Max. Effect (%)” value is listed as 95%, the “Hill Slope” value amounted to 1.2 and the “Max. Fit” value is 97. The “Min. Fit” value in data set [1] is recorded as 0. Moreover, the “LDH % Toxicity (50 μM Dose)” value in data set [2] amounted to 5.082%. For the same compound, the “Alamar Blue % Viability (50 μM Dose)” value in data set [3] turned out to be 89.373%.
In the case of `Cc1ccsc1C(=O)N1CCC[C@H]1c1ccccc1-c1ccc(C(F)(F)F)cc1` [ESC1002314], in data set [1], the EC50 is 575 nM, the “Max. Effect (%)” value turned out to be 99%, the “Hill Slope” value is 1.2 and the “Max. Fit” value came to 97. Moreover, the “Min. Fit” value in data set [1] was found to be 0. Also, the “LDH % Toxicity (50 μM Dose)” value in data set [2] is 5.98%. Also, in data set [3], the “Alamar Blue % Viability (50 μM Dose)” value turned out to be 87.10%.
`COCCN(C(=O)c1ccccc1F)c1cccc(N(C)Cc2c[nH]cn2)c1` [ESC1002266, 2-fluoro-N-[3-[1H-imidazol-4-ylmethyl(methyl)amino]phenyl]-N-(2-methoxyethyl)benzamide]: in data set [1], the EC50 is 6460 nM, the “Max. Effect (%)” value is 74%, the “Hill Slope” value is 0.98 and the “Max. Fit” value amounted to 100. Also, the “Min. Fit” value in data set [1] is recorded as −4. For the same compound, the “LDH % Toxicity (50 μM Dose)” value in data set [2] amounted to 5.22%. The “Alamar Blue % Viability (50 μM Dose)” value in data set [3] worked out at 89.86%.
As for `Cc1ccsc1C(=O)N1CCC[C@H]1c1ccccc1-c1cnn(C2CCOCC2)c1` [ESC1002341], in data set [1], the EC50 is 1620 nM, the “Max. Effect (%)” value is reported as 91%, the “Hill Slope” value came out at 0.87 and the “Max. Fit” value is reported as 102. The “Min. Fit” value in data set [1] was −6. The “LDH % Toxicity (50 μM Dose)” value in data set [2] is 5.13%. The “Alamar Blue % Viability (50 μM Dose)” value in data set [3] amounted to 96.72%.
Turning to `COc1ccccc1-c1ccccc1[C@@H]1CCCN1C(=O)c1sccc1C` [ESC1002325], in data set [1], the EC50 was 309 nM, the “Max. Effect (%)” value is 98%, the “Hill Slope” value is on record as 0.87 and the “Max. Fit” value is listed as 100. Besides, in data set [1], the “Min. Fit” value is recorded as −11. In data set [2], the “LDH % Toxicity (50 μM Dose)” value is recorded as 4.36%. Moreover, the “Alamar Blue % Viability (50 μM Dose)” value in data set [3] was 89.12%.
Consider `Cc1ccsc1C(=O)N1CCC[C@H]1c1ccccc1-c1ccc(Cl)cc1Cl` [ESC1002340], for which, in data set [1], the EC50 was 631 nM, the “Max. Effect (%)” value is recorded as 105%, the “Hill Slope” value is 1.6 and the “Max. Fit” value was 96. The “Min. Fit” value in data set [1] was −7. For the same compound, the “LDH % Toxicity (50 μM Dose)” value in data set [2] came out at 5.33%. Further, in data set [3], the “Alamar Blue % Viability (50 μM Dose)” value is 94.26%.
Take `CN(Cc1c[nH]cn1)c1cccc(N(CC2CC2)C(=O)c2ccccc2F)c1` [ESC1002342, N-(cyclopropylmethyl)-2-fluoro-N-[3-[1H-imidazol-4-ylmethyl(methyl)amino]phenyl]benzamide]: in data set [1], the EC50 is 708 nM, the “Max. Effect (%)” value is on record as 99%, the “Hill Slope” value was determined as 1.6 and the “Max. Fit” value is recorded as 95. Moreover, in data set [1], the “Min. Fit” value is on record as −1. In addition, in data set [2], the “LDH % Toxicity (50 μM Dose)” value is 4.76%. Further, in data set [3], the “Alamar Blue % Viability (50 μM Dose)” value is recorded as 85.04%.
For `CN(C)CCN(C(=O)c1ccccc1F)c1cccc(N(C)Cc2c[nH]cn2)c1` [ESC1002334, N-[2-(dimethylamino)ethyl]-2-fluoro-N-[3-[1H-imidazol-4-ylmethyl(methyl)amino]phenyl]benzamide], in data set [1], the EC50 is more than 20000 nM and the “Max. Effect (%)” value was 23%. Also, the “LDH % Toxicity (50 μM Dose)” value in data set [2] amounted to 5.17%. Moreover, the “Alamar Blue % Viability (50 μM Dose)” value in data set [3] was determined as 92.96%.
Consider `CC(C)CN(C(=O)c1ccccc1F)c1cccc(N(C)Cc2ccn[nH]2)c1` [ESC1002206], for which, in data set [1], the “Max. Effect (%)” value was 79%, the “Hill Slope” value was determined as 0.93, the “Max. Fit” value came to 107 and the “Min. Fit” value was 0. Besides, the “LDH % Toxicity (50 μM Dose)” value in data set [2] (listed as ESC1002206-01) is given as 5.918%. Also, the “Alamar Blue % Viability (50 μM Dose)” value in data set [3] (listed as ESC1002206-01) is 95.609%.
With `Cc1ccsc1C(=O)N1CCC[C@@H]1c1ccccc1-c1ccn[nH]1` [ESC1002091], in data set [1], the EC50 was 3160 nM, the “Max. Effect (%)” value stood at 84%, the “Hill Slope” value is listed as 1.2 and the “Max. Fit” value turned out to be 93. Besides, the “LDH % Toxicity (50 μM Dose)” value in data set [2] was 5.395%. Besides, in data set [3], the “Alamar Blue % Viability (50 μM Dose)” value worked out at 84.920%.
As for `Cc1ccsc1C(=O)N1CCC[C@H]1c1ccccc1-c1cccc(S(C)(=O)=O)c1` [ESC1002322], in data set [1], the EC50 was more than 20000 nM and the “Max. Effect (%)” value is 41%. In addition, the “LDH % Toxicity (50 μM Dose)” value in data set [2] was determined as 6.93%. In addition, in data set [3], the “Alamar Blue % Viability (50 μM Dose)” value worked out at 89.24%.
In the case of `Cc1ccsc1C(=O)N1CCC[C@H]1c1ccccc1-c1cccc(C(F)(F)F)c1` [ESC1002320], in data set [1], the EC50 is 603 nM, the “Max. Effect (%)” value came to 99%, the “Hill Slope” value is 0.91 and the “Max. Fit” value came out at 101. Also, in data set [1], the “Min. Fit” value was −1. Further, in data set [2], the “LDH % Toxicity (50 μM Dose)” value is reported as 5.12%. The “Alamar Blue % Viability (50 μM Dose)” value in data set [3] turned out to be 83.37%.
Take `COc1ccc(-c2ccccc2[C@H]2CCCN2C(=O)c2sccc2C)cn1` (single isomer, unassigned) [ESC1002162]: the IC50 in data set [1] (17β-HSD10 dose response / inhibition assay, read-out: 17β-HSD10 pIC50 (converted)) is 490 nM. Besides, in data set [1], the EC50 is 490 nM, the “Max. Effect (%)” value stood at 98%, the “Hill Slope” value worked out at 1 and the “Max. Fit” value came to 99. Also, the “Min. Fit” value in data set [1] amounted to 0. For the same compound, the “LDH % Toxicity (50 μM Dose)” value in data set [2] was determined as 6.843%. For the same compound, in data set [3], the “Alamar Blue % Viability (50 μM Dose)” value was 83.498%.
`CC(C)CN(C(=O)c1ccccc1)c1cccc(N(C)Cc2cnc[nH]2)c1` [ESC1002169, N-[3-[1H-imidazol-5-ylmethyl(methyl)amino]phenyl]-N-isobutyl-benzamide]: in data set [1], the EC50 was 646 nM, the “Max. Effect (%)” value is listed as 97%, the “Hill Slope” value is 1.1 and the “Max. Fit” value is 98. The “Min. Fit” value in data set [1] came to 0. The “LDH % Toxicity (50 μM Dose)” value in data set [2] worked out at 4.554%. The “Alamar Blue % Viability (50 μM Dose)” value in data set [3] stood at 84.229%.
With `COc1ccc(-c2ccccc2[C@H]2CCCN2C(=O)c2sccc2C)cc1` (single isomer, unassigned) [ESC1002331], in data set [2], the “LDH % Toxicity (50 μM Dose)” value was found to be 5.88%. In addition, in data set [3], the “Alamar Blue % Viability (50 μM Dose)” value was 88.56%.
For `CC(C)CN(C(=O)c1ccccc1F)c1cccc(N(C)Cc2cn[nH]c2)c1` [ESC1002205-02] the same measures were 5.243% and 89.638%.
Turning to `CNC(=O)CNc1cccc(N(CC(C)C)C(=O)c2ccccc2F)c1` [ESC1002573], in data set [1], the EC50 was more than 20000 nM and the “Max. Effect (%)” value came to 4%.
`Cc1ccccc1C(=O)N(CC(C)C)c1cccc(N(C)Cc2c[nH]cn2)c1` [ESC1002491, N-[3-[1H-imidazol-4-ylmethyl(methyl)amino]phenyl]-N-isobutyl-2-methyl-benzamide]: in data set [1], the EC50 is 1170 nM, the “Max. Effect (%)” value came out at 96%, the “Hill Slope” value is given as 1 and the “Max. Fit” value is on record as 102. Also, the “Min. Fit” value in data set [1] turned out to be 2.
Take `CC(=O)NCCCN(C)c1cccc(N(CC(C)C)C(=O)c2ccccc2F)c1` [ESC1002507]: in data set [1], the EC50 was more than 20000 nM and the “Max. Effect (%)” value was 4%.
